Source: publication PMC11906403, “Anti-lymphoma peptide is inspired by mapping a sequence of four amino acids of KRAI motif as nuclear localization signal of Crlz-1” (Molecular Therapy Oncology, 2025)
Like-named read-outs stand apart in the source and are kept apart here. Where no end group is shown, it is not given here.

How the values were obtained:
[1] = test system: Ramos cells; format: cell-based, human
Source text: (§1) Ramos (CRL-1596; American Type Culture Collection [ATCC]) is a human cell line of GC centroblast-derived BCL that was isolated from a Burkitt’s lymphoma patient, and Daudi (CCL-213; ATCC) is another human BCL cell line of Burkitt’s type. The control human cell lines of K562 (CCL-243; ATCC) and THP-1 (TIB-202; ATCC) wre originated from myelogenous and monocytic leukemia patients, respectively. NIH3T3 (CRL-1658; ATCC) is a mouse cell line of fibroblasts. […] Cells were counted on a hemocytometer (Neubauer; Marienfeld) after staining their aliquot with an equal volume of 0.4% trypan blue solution. All of the cell culture media and their supplements were purchased from Gibco (Thermo Fisher Scientific).
Stock solutions of various peptides, whose syntheses were custom ordered from GenScript via Koma Biotech in Korea, were first prepared by dissolving the lyophilized powder in PBS. Then, their aliquots were serially diluted with PBS to reach the final concentrations required for the experiments. […] To chase the effect of peptide transfection on the cellular proliferation, cells were counted daily on a hemocytometer by staining their aliquot with an equal volume of 0.4% trypan blue solution and finally harvested to analyze the effects of transfected peptide on various molecular events such as protein localization, transcription factor binding, gene expression, and rRNA production. […]

[2] = test system: Ramos, Daudi, K562 and THP-1 cells
Protocol: (§2) For a 2-mL culture of cells in each well of a 6-well plate, 7 μL peptide solution in a concentration of 10 μg/μL in PBS was added directly to the culture media, which were RPMI-1640 supplemented with fetal bovine serum (10%), L-glutamine (1×), nonessential amino acids (1×), penicillin/streptomycin (1×), and 2-mercaptoethanol (50 μM), but not sodium pyruvate. The intrinsic cell membrane permeability of peptide with its N-terminally conjugated FAM fluorophore was checked by observing the peptide-treated cells in a confocal fluorescence microscope (Zeiss) after mounting the washed cells on a microscope slide with a cover glass. It was important that the treated cells be washed well, for example, five times with warm PBS-T (0.01% Tween 20) to remove any nonspecifically adsorbed FAM fluorophore-conjugated peptides. Various custom-ordered peptides with or without the conjugated FAM fluorophore to be used for this direct addition to the cells in culture media as well as for their intravenous injection to the xenografted nude mice as described below were prepared as mentioned above.

[3] = test system: Ramos cells; format: cell-based, human; details: control peptides added directly to culture media without sodium pyruvate (Figure 6A)
Source text: as §1

[4] = test system: Daudi cells; format: cell-based, human; details: control peptides added directly to culture media without sodium pyruvate (Figure 6B)
Source text: as §1

[5] = test system: Ramos, Daudi, K562 and THP-1 cells; experiment: Intrinsic cell membrane permeability of FAM-conjugated peptides added directly to culture media (confocal fluorescence microscopy); details: for intrinsic cell membrane permeability: FAM fluorophore-labeled peptides added directly to Ramos, Daudi, K562 and THP-1 cells in culture media, cells washed with PBS-T, confocal fluorescence (Figure 6); for cell membrane permeability: N-terminally FAM-conjugated peptide added directly to culture media, confocal fluorescence (Figure 5A)
Protocol: as §2

Compound	intrinsic cell membrane permeability [2]	proliferation of Crlz-1+ Ramos cells inhibited [3]	proliferation of Crlz-1+ Daudi cells inhibited [4]	intrinsic cell membrane permeability [5]	cell membrane permeability ([5]; absence of sodium pyruvate)	also measured
O=C([O-])CCN1C(=O)/C(=C/c2ccc(-c3ccc([N+](=O)[O-])cc3)o2)SC1=S.[K+] [KYA1797K]						saturation concentration for cell growth inhibition ([1]; titration in Xfect transfection/treatment of Ramos cells, in the absence of any cell death (Figures 2D, 2E)): 5.5 µg/mL
ADEAIT [negatively charged control peptide]	no such intrinsic cell membrane permeability	not	not			
AKRAIT [AKRAIT]				intrinsic cell membrane permeabilities	intrinsically membrane permeable	death of transfected cells [1]: not observed
AVGAGT [AVGAGT]				intrinsic cell membrane permeabilities	permeable through the membrane regardless of sodium pyruvate	cell membrane permeability ([5]; presence of sodium pyruvate): permeable through the membrane regardless of sodium pyruvate
TIARKA	intrinsic cell membrane permeabilities	not	not			
